PubChem BioAssay (NCI)
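Following 48 hours of exposure in 96-well plates, responses at five concentrations were used to interpolate endpoints linearly. TGI: concentration producing complete growth inhibition.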

Legend:
Experiment in all cases: growth of human tumour cells (NCI), 48 h
IGROV1 ovarian = tested on: IGROV1 ovarian
SK-MEL-5 melanoma = tested on: SK-MEL-5 melanoma
HS 578T breast = tested on: HS 578T breast
OVCAR-5 ovarian = tested on: OVCAR-5 ovarian
MOLT-4 leukemia = tested on: MOLT-4 leukemia
A498 renal = tested on: A498 renal
LOX IMVI melanoma = tested on: LOX IMVI melanoma
SN12C renal = tested on: SN12C renal
M14 melanoma = tested on: M14 melanoma
ACHN renal = tested on: ACHN renal
KM12 colon = tested on: KM12 colon
UACC-257 melanoma = tested on: UACC-257 melanoma
MDA-MB-231 breast = tested on: MDA-MB-231 breast
NCI/ADR-RES ovarian = tested on: NCI/ADR-RES ovarian
MDA-N = tested on: MDA-N
HL-60(TB) leukemia = tested on: HL-60(TB) leukemia
SK-MEL-28 melanoma = tested on: SK-MEL-28 melanoma
HCC-2998 colon = tested on: HCC-2998 colon

SMILES	TGI (IGROV1 ovarian)	TGI (SK-MEL-5 melanoma)	TGI (HS 578T breast)	TGI (OVCAR-5 ovarian)	TGI (MOLT-4 leukemia)	TGI (A498 renal)	TGI (LOX IMVI melanoma)	TGI (SN12C renal)	TGI (M14 melanoma)	TGI (ACHN renal)	TGI (KM12 colon)	TGI (UACC-257 melanoma)	TGI (MDA-MB-231 breast)	TGI (NCI/ADR-RES ovarian)	TGI (MDA-N)	TGI (HL-60(TB) leukemia)	TGI (SK-MEL-28 melanoma)	TGI (HCC-2998 colon)
COc1ccc(N(C(=O)OC(C)(C)C)[C@@H]2C(C)=C[C@H]([S@@](=O)c3ccc(C)cc3)[C@@H]3C(=O)N(C)C(=O)[C@@H]32)cc1	23.1 µM	43.7 µM	42.9 µM	43.1 µM	94.6 µM	29.3 µM	17.5 µM	32.2 µM	> 100 µM	43.8 µM	30.5 µM	43.8 µM	46.4 µM	52.1 µM	40.8 µM	47.5 µM	41.3 µM	–
C(=N\NC1=NCCCN1)/c1ccc(-c2cn3cc(/C=N/NC4=NCCCN4)ccc3n2)cc1	> 100 µM	> 100 µM	–	> 100 µM	11.8 µM	> 78.5 µM	> 100 µM	> 100 µM	> 100 µM	> 100 µM	> 100 µM	> 100 µM	> 100 µM	> 100 µM	> 100 µM	> 58.1 µM	> 100 µM	> 100 µM
CC(=O)NC1C(OCC(=O)NC(C)C(=O)NC(CCC(=O)NCCCCCNc2ccc([N+](=O)[O-])c3[nH]c4ccccc4c(=O)c23)C(N)=O)C(O)C(CO)OC1(C)OCc1ccccc1 (stereo not drawn)	> 50 µM	> 50 µM	> 50 µM	> 50 µM	> 50 µM	> 50 µM	> 50 µM	> 50 µM	> 50 µM	> 50 µM	> 50 µM	> 50 µM	31.4 µM	> 50 µM	> 50 µM	–	–	> 50 µM
NS(=O)(=O)c1ccc(CNC(=S)NC(=O)Nc2ccc(Cl)c(Cl)c2)cc1	50.5 µM	33 µM	38.1 µM	> 100 µM	40.2 µM	33.5 µM	27.9 µM	33.3 µM	35.8 µM	46 µM	43.1 µM	> 100 µM	25.5 µM	41.1 µM	46.4 µM	–	69.8 µM	–
COC(=O)CSc1[nH]c2nc(C)nc(Nc3ccccc3)c2c1C#N	> 10 µM	> 10 µM	–	–	> 10 µM	–	> 10 µM	> 10 µM	> 10 µM	–	> 10 µM	> 10 µM	> 10 µM	–	> 10 µM	> 10 µM	> 10 µM	> 10 µM
COc1cccc(-n2nnc3c(N)nc(N)nc32)c1	> 100 µM	> 100 µM	–	> 100 µM	> 100 µM	> 100 µM	> 100 µM	> 100 µM	> 100 µM	> 100 µM	> 100 µM	> 100 µM	> 100 µM	> 100 µM	> 100 µM	> 100 µM	> 100 µM	–
Cc1cc2nc3c(C#N)c(-c4ccccc4)/c(=C\Nc4cccc(C(F)(F)F)c4)c(=O)n3c2cc1C	–	> 100 µM	–	> 100 µM	–	> 100 µM	> 100 µM	> 100 µM	> 100 µM	> 100 µM	> 100 µM	> 100 µM	> 100 µM	> 100 µM	> 100 µM	–	> 100 µM	> 100 µM
CC(C)(C)[Si](C)(C)OCC1OC(n2ccc(=O)[nH]c2=O)C(O[Si](C)(C)C(C)(C)C)/C1=N/O (stereo not drawn)	15.6 µM	6.07 µM	–	18.6 µM	6.57 µM	16.5 µM	10.5 µM	16.3 µM	12 µM	12.1 µM	> 22.6 µM	16.7 µM	54.6 µM	8.79 µM	> 36.2 µM	–	9.69 µM	14.8 µM
CCOC(=O)/C(O)=C(\C=N\C(=S)Nc1ccc(Cl)c(Cl)c1)C(=O)OCC	> 100 µM	> 100 µM	> 100 µM	> 100 µM	> 100 µM	–	> 100 µM	> 100 µM	> 100 µM	> 100 µM	> 100 µM	> 100 µM	> 100 µM	> 100 µM	> 100 µM	59.7 µM	> 100 µM	–
Cc1ccc(S(=O)/C=C(\NC(=O)OCc2ccccc2)C(F)(F)F)cc1 (stereo not drawn)	> 100 µM	> 100 µM	–	> 100 µM	> 100 µM	–	> 100 µM	> 100 µM	> 100 µM	71 µM	> 100 µM	> 100 µM	> 100 µM	> 100 µM	> 100 µM	42 µM	72 µM	> 100 µM
CCOC(=O)Nc1ccc(S(=O)(=O)Nc2ccc(Br)cc2)cc1	> 100 µM	88.7 µM	> 100 µM	> 100 µM	> 100 µM	48.4 µM	> 100 µM	> 100 µM	> 100 µM	85.2 µM	> 100 µM	> 100 µM	93.5 µM	> 100 µM	> 100 µM	> 100 µM	> 100 µM	–
Fc1ccc(C(=NCc2ccccc2)N2CCOCC2)cc1	> 100 µM	> 100 µM	> 100 µM	> 100 µM	> 100 µM	> 100 µM	> 100 µM	> 100 µM	> 100 µM	> 100 µM	> 100 µM	> 100 µM	> 100 µM	> 100 µM	> 100 µM	> 100 µM	> 100 µM	–
COc1cc(O)c(C(=O)/C=C/c2ccc(O)cc2)cc1Oc1ccc(C(=O)/C=C/c2ccc(O)cc2)c(O)c1	3.9 µM	4.19 µM	82.8 µM	5.6 µM	> 100 µM	5.68 µM	10.7 µM	5.99 µM	12.7 µM	5.02 µM	3.18 µM	21.7 µM	9.75 µM	9.55 µM	12.1 µM	> 100 µM	4.11 µM	–
CC(C)=NN/C(=N\S(=O)(=O)c1cc(Cl)c(Oc2ccc([N+](=O)[O-])cc2Cl)c(Cl)c1)Nc1ccc(Cl)cc1	> 100 µM	> 100 µM	> 100 µM	> 100 µM	> 100 µM	–	> 100 µM	> 100 µM	> 100 µM	–	> 100 µM	> 100 µM	> 100 µM	> 100 µM	> 100 µM	> 100 µM	> 100 µM	–
